Data reported in patent publication US20020082200A1, “Use of inhibitors of human S-CD23” (SmithKline Beecham p.1.c., priority 1994, published 2002).

Legend:
Assay type in all cases: cell-based
soluble CD23 = experiment: Inhibition of release of soluble CD23 from CD23-transfected CHO cells (Procedure 1); conditions: CHO cells transfected with alpha form of CD23, 6 hours, ELISA of supernatant; read-out: IC50 (concentration which inhibits the release of soluble CD23 by 50% relative to the control culture)
Description: The ability of test compounds to inhibit the release of soluble CD23 was investigated by use of the following procedure.
Adherent Chinese Hamster Ovary cells which had been transfected with the alpha form of CD23 were grown in microtitre plates. Cells were grown to confluence in α-MEM medium with 10% foetal calf serum, 2 mM glutamine containing 800 micro g/ml G418. Medium was removed and the cells washed with sterile phosphate buffered saline. Test compounds were dissolved in dimethyl sulphoxide at a stock concentration of 20 mM, then diluted 1 in 200 with α-MEM containing 800 micro g/ml G418 (no foetal calf serum). […] of the diluted compounds were added to the adherent cells in triplicate wells. Appropriate control cultures were set up in triplicate. The plates were incubated for 6 hours at 37° C., 95% air/5% CO2 in a humidified incubator, then centrifuged at 200× g for 3 minutes. A specific ELISA for CD23, obtained from The Binding Site Limited, Institute of Research and Development, Birmingham England, was used to measure CD23 levels in the culture supernatants.

[1] = system: Human peripheral blood mononuclear cells; experiment: Inhibition of formation of human IgE in vitro, peripheral blood mononuclear cells with IL4 (Procedure 3); conditions: 12 days, ELISA, IL4 alone 72.4, TCM 0.25
Description: (§1) The ability of test compounds to inhibit the formation of human IgE in vitro was investigated using the following procedure:
Human peripheral blood mononuclear cells were separated by centrifugation over Ficoll-Paque (Pharmacia). The cells were suspended in RPMI 1640 medium containing 10% foetal calf serum, 2 mM glutamine, 50 microM 2-mercaptoethanol and 50 micro g/ml gentamycin (TCM) at a concentration of 1.25×10^6 cells/ml. 800 micro l of the cell suspension were aliquoted into the wells of a 48 well plate. […] Test compounds are dissolved in dimethylsulphoxide (DMSO) at a stock dilution of
10^−2M diluted 1 in 100 in TCM and then as above. The plates are incubated for 12 days at 37° C. in a 95% air/5% CO2 humidified incubator. At the end of the culture period the supernatants were removed with the wells and centrifuged (200× g for 10 minutes) to remove any non-adherent cells. There was no toxicity as assessed by trypan blue dye exclusion. The IgE concentration in the supernatants was measured by ELISA.

[2] = system: Human tonsillar B lymphocytes; experiment: Inhibition of formation of human IgE in vitro, tonsillar B lymphocytes with IL4 and anti-CD40 (Procedure 4); conditions: 11 days, ELISA, stimulated control 11.7, TCM 1.9
Description: as §1
Human tonsillar B lymphocytes were suspended in RPMI 1640 medium containing 10% foetal calf serum, 2 mM glutamine, 50 micro M 2-mercaptoethanol and 50 micro g/ml gentamycin (TCM) at a concentration of 1.25×10^6 cells/ml. 800 micro l of the cell suspension were aliquoted into the wells of a 48 well plate. 100 micro l of TCM or IL4 at 100 ng/ml and antibody to CD40 at 10 microg/ml was added in quadriplicate to the appropriate wells, followed by 100 micro l of TCM or 10× the final concentration of compound under investigation. Test compounds are dissolved in DMSO at a stock dilution of 10^−2M diluted 1 in 100 in TCM and then as above. The plates are incubated for 11 days at 37° C. in a 95% air/5% CO2 humidified incubator. At the end of the culture period the supernatents were removed from the wells and centrifuged (200× g for 10 minutes) to remove any non-adherent cells. There was no toxicity as assessed by trypan dye exclusion. The IgE concentration in the supernatants was measured by ELISA.

Q: Which IC50 (soluble CD23) does the source give for `CNC(=O)[C@H](Cc1c[nH]c2ccccc12)NC(=O)[C@H](CC(C)C)[C@@H](S)CC(=O)OC` [P4, Methyl 3-(S)-mercapto-6-methyl-4-(S)-[[[1(S)-[(methylamino)carbonyl]-2-(3-indolyl)ethyl]amino]carbonyl]heptanoate] here?
A: Its IC50 is 2.2 µM.

Q: How did the IC50 (soluble CD23) turn out when `CNC(=O)[C@H](Cc1c[nH]c2ccccc12)NC(=O)[C@H](CC(C)C)[C@@H](S)CC(=O)OC(C)C` [P5, Isopropyl 3-(S)-mercapto-6-methyl-4-(S)-[[[1(S)-[(methylamino)carbonyl]-2-(3-indolyl)ethyl]amino]carbonyl]heptanoate] was run?
A: The IC50 was 60 µM.

Q: For `CNC(=O)[C@@H](Cc1ccc(OC)cc1)NC(=O)C(CC(=O)NO)CC(C)C` (stereo partly drawn) [P3, N-[3-(N′-Hydroxycarboxamido)-2-(2-methylpropyl)-propanoyl]-(S)-O-methyl-L-tyrosine-N-methylamide], which IC50 (soluble CD23) is on record?
A: Its IC50 is 3.35 µM.

Q: Which IC50 (soluble CD23) does the source give for `CNC(=O)[C@H](Cc1ccc(OC)cc1)NC(=O)[C@H](CC(C)C)[C@@H](S)CC(N)=O` [P6, 3-(S)-Mercapto-N^1-[1-(S)-[(methylamino)carbonyl]-2-(4-methoxyphenyl)ethyl]-2-(S)-(2-methylpropyl)pentanediamide] here?
A: Its IC50 is 60 µM.

Q: With `CC[C@@H](N[C@@H](CC(C)C)C(=O)N[C@@H](Cc1ccc(OC)cc1)C(=O)NC)P(=O)(O)O` [P7, N-[N-((S)-1-Phosphonopropyl)-(S)-leucyl]-O-methyl-(S)-tyrosine N-methylamide] as the compound, how does the IC50 (soluble CD23) read?
A: The IC50 was 30 µM.

Q: Which results are given for `CNC(=O)[C@@H](Cc1ccccc1)NC(=O)[C@H](CC(C)C)[C@H](CSc1cccs1)C(=O)N[O-].[Na+]` [P1, [4-(N-Hydroxyamino)-2-(R)-isobutyl-3-(S)-(2-thiophenethiomethyl)succinyl]-(S)-phenylalanine-N-methylamide, Sodium Salt]?
A: IC50 (soluble CD23): 0.05 µM; IgE ng/ml (mean +/− sem) ([1]; IL4 (5 ng/ml) with compound at 10^−5 M): 3.2 ± 1.9 ng/mL; IgE ng/ml (mean +/− sem) ([1]; IL4 (5 ng/ml) with compound at 10^−6 M): 21.3 ± 16.5 ng/mL; IgE ng/ml (mean +/− sem) ([1]; IL4 (5 ng/ml) with compound at 10^−7 M): 68.8 ± 21.8 ng/mL; IgE ng/ml (mean +/− sem) ([2]; IL4 (10 ng/ml) and anti CD40 (1 micro g/ml) with compound at 10^−5 M): 2.9 ± 0.2 ng/mL; IgE ng/ml (mean +/− sem) ([2]; IL4 (10 ng/ml) and anti CD40 (1 micro g/ml) with compound at 10^−6 M): 4.3 ± 0.6 ng/mL; IgE ng/ml (mean +/− sem) ([2]; IL4 (10 ng/ml) and anti CD40 (1 micro g/ml) with compound at 10^−7 M): 6.2 ± 0.5 ng/mL
